Reference: patent US20240251788A1, “HERBICIDE/SAFENER COMBINATION BASED ON SAFENERS FROM THE CLASS OF SUBSTITUTED [(1,5-DIPHENYL-1H-1,2,4-TRIAZOL-3-YL)OXY]ACETIC ACIDS AND THEIR SALTS” (Bayer Aktiengesellschaft, priority 2021, published 2024)

Experiments:
[1] = system: summer wheat crop plant (TRZAS; cv. Triso); experiment: Reduction in herbicide damage to summer wheat by safener, greenhouse post-emergence application, visual scoring; format: in vivo; parameters: key to Reduction in the damage by safener (difference): difference in % visual damage (0-100% scale vs untreated) due to safener
Method: (§1) The seeds of the crop plants to be treated are laid out in soil in woodfiber pots (diameter ˜ 7 cm), covered with soil and grown in a greenhouse under good conditions for germination and growth. The trial plants were treated at the early leaf stage (BBCH10-BBCH12).
The herbicides used (component B) were used in the following formulations: • B2.81: WP • B2.85: WP • B2.92: WP • Cinmethylin: EC • Clomazone: WP • Ethofumesate: WP • Flufenacet: SC • Pinoxaden: WP • Saflufenacil: WP • Bicyclopyrone: WP • Picloram: WP • Metazachlor: SC • Flumioxazin: WP • Glyphosate potassium salt: SL • Topramezone: WP
(§2) The dose of the respective herbicides was chosen here such that it causes an average degree of visually apparent damage (min. 20%, max. 75%) compared to untreated crop plants at the evaluation time on a control group of crop plants without safener treatment that were included in the same trial.
(§3) In the respective herbicide/safener combinations, the safeners (component A) in the form of wettable powders (WP) were added in the dose specified; in these cases, herbicide and safener are thus applied as a mixture.
(§4) Application was effected in each case on to the above-ground parts of the plant, at a water application rate corresponding to 300 l/ha and with addition of wetting agent (Mero, 1.5 l/h a).
In the applications that contained pinoxaden, bicyclopyrone or topramezone, the herbicidal effect was enhanced by additionally adding ammonium sulfate (2 kg/ha).
(§5) After application, the plants were cultivated under good growth conditions in a greenhouse. On account of the different mechanisms of action of the herbicides used, the damaging effect of the herbicides was fully manifested at different times depending on the herbicide, and this in turn forms the basis for assessment of the safener action in the mixtures. Therefore, the damage was scored visually, depending on the herbicide/mixture, between 11 and 21 days after application.
(§6) The damage effect was assessed visually on a scale of 0-100% by comparison with untreated control plants, and averaged over 2 repeats per treatment.

[2] = system: summer barley crop plant (HORVS: cv. Quench); experiment: Reduction in herbicide damage to summer barley by safener, greenhouse post-emergence application, visual scoring; format: in vivo; parameters: key to Reduction in the damage by safener (difference): difference in % visual damage, 0-100% scale vs untreated plants
Method: as §1
The herbicides used (component B) were used in the following formulations: • B2.81: WP • B2.85: WP • B2.92: WP • Clomazone: WP • Ethofumesate: WP • Flufenacet: SC • Fluroxypyr: EC • Saflufenacil: WP • Thiencarbazone-methyl: WP • Iodosulfuron-methyl-sodium: WP • Bifenox: WP • Glyphosate potassium salt: SL • Topramezone: WP
as §2, §3, §4
In the applications that contained pinoxaden or topramezone, the herbicidal effect was enhanced by additionally adding ammonium sulfate (2 kg/ha).
as §5, §6

[3] = summer wheat (TRZAS), herbicide B1.2 (bicyclopyrone) 400 g a.i./ha + safener 100 g a.i./ha
[4] = summer wheat (TRZAS), herbicide B1.8 (pinoxaden) 200 g a.i./ha + safener 100 g a.i./ha
[5] = summer wheat (TRZAS), herbicide B2.28 (flufenacet) 2000 g a.i./ha + safener 100 g a.i./ha
[6] = summer wheat (TRZAS), herbicide B2.28 (flufenacet) 4000 g a.i./ha + safener 100 g a.i./ha
[7] = summer wheat (TRZAS), herbicide B2.38 (metazachlor) 4000 g a.i./ha + safener 100 g a.i./ha
[8] = summer wheat (TRZAS), herbicide B2.81 15 g a.i./ha + safener 100 g a.i./ha
[9] = summer wheat (TRZAS), herbicide B4.28 (topramezone) 300 g a.i./ha + safener 100 g a.i./ha
[10] = summer wheat (TRZAS), herbicide B5.13 (cinmethylin) 500 g a.i./ha + safener 100 g a.i./ha
[11] = summer wheat (TRZAS), herbicide B5.13 (cinmethylin) 1000 g a.i./ha + safener 100 g a.i./ha
[12] = summer wheat (TRZAS), herbicide B5.14 (clomazone) 200 g a.i./ha + safener 100 g a.i./ha
[13] = summer wheat (TRZAS), herbicide B5.21 (ethofumesate) 2000 g a.i./ha + safener 100 g a.i./ha
[14] = summer wheat (TRZAS), herbicide B5.26 (flumioxazin) 20 g a.i./ha + safener 100 g a.i./ha
[15] = summer wheat (TRZAS), herbicide B6.5 (picloram) 400 g a.i./ha + safener 100 g a.i./ha
[16] = summer wheat (TRZAS), herbicide B7.5 (glyphosate) 400 g a.i./ha + safener 100 g a.i./ha
[17] = summer barley (HORVS), herbicide B2.28 (flufenacet) 2000 g a.i./ha + safener 100 g a.i./ha
[18] = summer barley (HORVS), herbicide B2.28 (flufenacet) 4000 g a.i./ha + safener 100 g a.i./ha
[19] = summer barley (HORVS), herbicide B2.34 (iodosulfuron) 10 g a.i./ha + safener 100 g a.i./ha
[20] = summer barley (HORVS), herbicide B2.68 (thiencarbazone-methyl) 30 g a.i./ha + safener 100 g a.i./ha
[21] = summer barley (HORVS), herbicide B2.81 15 g a.i./ha + safener 100 g a.i./ha
[22] = summer barley (HORVS), herbicide B2.85 5 g a.i./ha + safener 100 g a.i./ha
[23] = summer barley (HORVS), herbicide B2.92 5 g a.i./ha + safener 100 g a.i./ha
[24] = summer barley (HORVS), herbicide B4.28 (topramezone) 300 g a.i./ha + safener 100 g a.i./ha
[25] = summer barley (HORVS), herbicide B5.21 (ethofumesate) 2000 g a.i./ha + safener 100 g a.i./ha
[26] = summer barley (HORVS), herbicide B6.4 (fluroxypyr) 500 g a.i./ha + safener 100 g a.i./ha
[27] = summer barley (HORVS), herbicide B7.5 (glyphosate) 400 g a.i./ha + safener 100 g a.i./ha
[28] = summer barley (HORVS), herbicide B8.6 (bifenox) 600 g a.i./ha + safener 100 g a.i./ha
[29] = summer wheat (TRZAS), herbicide B2.85 5 g a.i./ha + safener 100 g a.i./ha
[30] = summer wheat (TRZAS), herbicide B2.92 5 g a.i./ha + safener 100 g a.i./ha
[31] = summer barley (HORVS), herbicide B9.10 (saflufenacil) 20 g a.i./ha + safener 100 g a.i./ha

## COC(=O)COc1nc(-c2ccc(Cl)cc2F)n(-c2ccc(F)cc2F)n1 [Compound A3, methyl {[5-(4-chloro-2-fluorophenyl)-1-(2,4-difluorophenyl)-1H-1,2,4-triazol-3-yl]oxy}acetate]
[1]; [3]
  Reduction in the damage by safener (difference): 25
  Reduction in the damage by safener (in %): 42%
[1]; [4]
  Reduction in the damage by safener (difference): 15
  Reduction in the damage by safener (in %): 43%
[1]; [5]
  Reduction in the damage by safener (difference): 30
  Reduction in the damage by safener (in %): 100%
[1]; [6]
  Reduction in the damage by safener (difference): 40
  Reduction in the damage by safener (in %): 100%
[1]; [7]
  Reduction in the damage by safener (difference): 30
  Reduction in the damage by safener (in %): 75%
[1]; [8]
  Reduction in the damage by safener (difference): 15
  Reduction in the damage by safener (in %): 21%
[1]; [9]
  Reduction in the damage by safener (difference): 20
  Reduction in the damage by safener (in %): 50%
[1]; [10]
  Reduction in the damage by safener (difference): 25
  Reduction in the damage by safener (in %): 100%
[1]; [11]
  Reduction in the damage by safener (difference): 25
  Reduction in the damage by safener (in %): 100%
[1]; [12]
  Reduction in the damage by safener (difference): 15
  Reduction in the damage by safener (in %): 38%
[1]; [13]
  Reduction in the damage by safener (difference): 70
  Reduction in the damage by safener (in %): 100%
[1]; [14]
  Reduction in the damage by safener (difference): 25
  Reduction in the damage by safener (in %): 42%
[1]; [15]
  Reduction in the damage by safener (difference): 20
  Reduction in the damage by safener (in %): 80%
[1]; [16]
  Reduction in the damage by safener (difference): 35
  Reduction in the damage by safener (in %): 78%
[2]; [17]
  Reduction in the damage by safener (difference): 15
  Reduction in the damage by safener (in %): 50%
[2]; [18]
  Reduction in the damage by safener (difference): 35
  Reduction in the damage by safener (in %): 70%
[2]; [19]
  Reduction in the damage by safener (difference): 25
  Reduction in the damage by safener (in %): 56%
[2]; [20]
  Reduction in the damage by safener (difference): 30
  Reduction in the damage by safener (in %): 100%
[2]; [21]
  Reduction in the damage by safener (difference): 70
  Reduction in the damage by safener (in %): 100%
[2]; [22]
  Reduction in the damage by safener (difference): 15
  Reduction in the damage by safener (in %): 25%
[2]; [23]
  Reduction in the damage by safener (difference): 30
  Reduction in the damage by safener (in %): 46%
[2]; [24]
  Reduction in the damage by safener (difference): 40
  Reduction in the damage by safener (in %): 80%
[2]; [25]
  Reduction in the damage by safener (difference): 60
  Reduction in the damage by safener (in %): 100%
[2]; [26]
  Reduction in the damage by safener (difference): 20
  Reduction in the damage by safener (in %): 100%
[2]; [27]
  Reduction in the damage by safener (difference): 50
  Reduction in the damage by safener (in %): 83%
[2]; [28]
  Reduction in the damage by safener (difference): 35
  Reduction in the damage by safener (in %): 88%

## COC(=O)COc1nc(-c2ccc(F)cc2F)n(-c2ccc(Cl)cc2F)n1 [Compound A5, methyl {[1-(4-chloro-2-fluorophenyl)-5-(2,4-difluorophenyl)-1H-1,2,4-triazol-3-yl]oxy}acetate]
[1]; [4]
  Reduction in the damage by safener (difference): 20
  Reduction in the damage by safener (in %): 57%
[1]; [8]
  Reduction in the damage by safener (difference): 20
  Reduction in the damage by safener (in %): 29%
[1]; [29]
  Reduction in the damage by safener (difference): 50
  Reduction in the damage by safener (in %): 83%
[1]; [30]
  Reduction in the damage by safener (difference): 55
  Reduction in the damage by safener (in %): 92%
[1]; [12]
  Reduction in the damage by safener (difference): 15
  Reduction in the damage by safener (in %): 38%
[1]; [13]
  Reduction in the damage by safener (difference): 70
  Reduction in the damage by safener (in %): 100%
[2]; [20]
  Reduction in the damage by safener (difference): 30
  Reduction in the damage by safener (in %): 100%
[2]; [21]
  Reduction in the damage by safener (difference): 20
  Reduction in the damage by safener (in %): 29%
[2]; [22]
  Reduction in the damage by safener (difference): 40
  Reduction in the damage by safener (in %): 67%
[2]; [23]
  Reduction in the damage by safener (difference): 50
  Reduction in the damage by safener (in %): 77%
[2]; [25]
  Reduction in the damage by safener (difference): 60
  Reduction in the damage by safener (in %): 100%
[2]; [26]
  Reduction in the damage by safener (difference): 15
  Reduction in the damage by safener (in %): 75%
[2]; [31]
  Reduction in the damage by safener (difference): 15
  Reduction in the damage by safener (in %): 38%

## C=C[C@]1(C(=O)N[C@H]2C=C[C@@H](C(=O)OC)C2)CC(c2cc(F)cc(F)c2)=NO1 [Compound B2.85, methyl (1S,4R)-4-[[[(5S)-3-(3,5-difluorophenyl)-5-vinyl-4H-1,2-oxazol-5-yl]carbonyl]amino]cyclopent-2-ene-1-carboxylate]
[1]; in vivo
  Damage to the plant by the herbicide (in %): 60%
[2]; in vivo
  Damage to the plant by the herbicide (in %): 60%

## C[C@]1(C(=O)N[C@H]2C=C[C@@H](C(=O)O)C2)CC(c2cc(F)cc(F)c2)=NO1 [Compound B2.92, (1S,4R)-4-[[(5R)-3-(3,5-difluorophenyl)-5-methyl-4H-isoxazole-5-carbonyl]amino]cyclopent-2-ene-1-carboxylic acid]
[1]; in vivo
  Damage to the plant by the herbicide (in %): 60%
[2]; in vivo
  Damage to the plant by the herbicide (in %): 65%

## CC1(C)CON(Cc2ccccc2Cl)C1=O [Compound B5.14, clomazone, reference compound]
[1]; in vivo
  Damage to the plant by the herbicide (in %): 40%
[2]; in vivo
  Damage to the plant by the herbicide (in %): 40%

## CCOC1Oc2ccc(OS(C)(=O)=O)cc2C1(C)C (stereo not shown) [Compound B5.21, ethofumesate, reference compound]
[1]; summer wheat (TRZAS), herbicide dose 2000 g a.i./ha, without safener
  Damage to the plant by the herbicide (in %): 70%
[2]; summer barley (HORVS), herbicide dose 2000 g a.i./ha, without safener
  Damage to the plant by the herbicide (in %): 60%

## O=C(O)CNCP(=O)(O)O [Compound B7.5, glyphosate, reference compound]
[1]; summer wheat (TRZAS), herbicide dose 400 g a.i./ha, without safener
  Damage to the plant by the herbicide (in %): 45%
[2]; summer barley (HORVS), herbicide dose 400 g a.i./ha, without safener
  Damage to the plant by the herbicide (in %): 60%

## CC(C)N(C)S(=O)(=O)NC(=O)c1cc(-n2c(=O)cc(C(F)(F)F)n(C)c2=O)c(F)cc1Cl [Compound B9.10, saflufenacil, reference compound]
[1]; summer wheat (TRZAS), herbicide dose 10 g a.i./ha, without safener
  Damage to the plant by the herbicide (in %): 35%
[1]; summer wheat (TRZAS), herbicide dose 20 g a.i./ha, without safener
  Damage to the plant by the herbicide (in %): 40%
[2]; summer barley (HORVS), herbicide dose 20 g a.i./ha, without safener
  Damage to the plant by the herbicide (in %): 40%
